Values joined by “and” are separate entries in the source; they are usually repeats but may differ in a detail not shown here. Equal entries are not always repeated.
Each compound was assayed against T1, PME-1 (Protein phosphatase methylesterase 1) (Homo sapiens, UniProt Q9Y570) (assay: Demethylation of PP2A by PME-1, radioactive filter binding assay). Conditions: not given.
T1 sequence (Q9Y570 1-386): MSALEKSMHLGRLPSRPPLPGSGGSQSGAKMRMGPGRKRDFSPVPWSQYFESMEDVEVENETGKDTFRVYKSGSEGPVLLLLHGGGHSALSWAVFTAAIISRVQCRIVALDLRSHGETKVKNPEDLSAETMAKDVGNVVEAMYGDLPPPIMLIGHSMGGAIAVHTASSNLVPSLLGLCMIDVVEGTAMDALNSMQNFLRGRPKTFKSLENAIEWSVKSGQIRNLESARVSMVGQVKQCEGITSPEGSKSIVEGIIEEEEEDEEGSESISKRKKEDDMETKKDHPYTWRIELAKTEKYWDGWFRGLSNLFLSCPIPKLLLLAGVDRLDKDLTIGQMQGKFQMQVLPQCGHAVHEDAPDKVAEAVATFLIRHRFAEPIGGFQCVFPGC
Format: biochemical
Method: [^3H]-labeled methylated PP2A AC dimer was prepared by incubating PP2A, LCMT1 and [^3H]-SAM (PerkinElmer; Waltham, MA, USA) in 50 mM MOPS-Na (pH 7.2), 5 mM MgCl2, and 1 mM DTT at room temperature for 1 h. Demethylation of PP2A by PME-1 (Protein phosphatase methylesterase 1) was measured using the radioactive filter binding assay format. 20 nM PME-1 was incubated for 15 min with extract or compound, then 20 nM of [^3H]-labeled methylated PP2A AC dimer was added. Reactions were run at room temperature for 30 min then applied to a 96-well filter plate (MilliporeSigma; Burlington, MA, USA.) containing 30% TCA where proteins were precipitated and separated from the excess of [^3H]-SAM by washing with 70% ethanol. [^3H]-incorporation was measured using TopCount NXT scintillation counter (PerkinElmer; Waltham, MA, USA). IC50 values were generated from dose–response curves using a four-parameter logistic curve fit in SigmaPlot (Systat Software, Inc., Palo Alto, CA, USA).

Structure (SMILES) | activity in preventing PP2A demethylation (in words)
Oc1ccc(/C=C/c2cc(O)cc(O)c2)cc1 [Resveratrol] | does not function through this PP2A mechanism

Same assay, conditions: GSE flavonoids / grape seed components; read-out: IC50, PP2A demethylation activity assay

IC50 | Structure (SMILES)
> 15 µM | C[C@@H]1O[C@@H](OC[C@H]2O[C@@H](Oc3c(-c4ccc(O)c(O)c4)oc4cc(O)cc(O)c4c3=O)[C@H](O)[C@@H](O)[C@@H]2O)[C@H](O)[C@H](O)[C@H]1O [Rutin]
4.3 µM | Oc1cc(O)c2cc(O)c(-c3ccc(O)c(O)c3)[o+]c2c1 [Cyanidin chloride]
1.7 µM | COc1c(O)cc2oc3cc(O)c(CC=C(C)C)c(O)c3c(=O)c2c1CC=C(C)C [Mangostine]
> 25 µM | COC(=O)Cc1cc(=O)oc2cc(OC)c(OC)cc12 [Methyl 6,7-dimethoxycoumarin-4-acetate]
> 15 µM | Oc1cc(O)cc(O)c1 [Phloroglucinol]
> 15 µM | COc1cc(C(=O)O)cc(OC)c1O [Syringic acid]
> 25 µM | C=C[C@@]1(C)CC(=O)[C@]2(O)[C@@]3(C)[C@@H](O)CCC(C)(C)[C@@H]3[C@H](O)[C@H](OC(C)=O)[C@@]2(C)O1 [Forskolin]
> 25 µM | O=C1C[C@@H](c2ccc(O)c(O)c2)Oc2cc(O)cc(O)c21 [Eriodictyol]
1.7 µM | O=c1cc(-c2ccc(O)c(O)c2)oc2cc(O)cc(O)c12 [Luteolin]
> 15 µM | Cc1ccc(O)c(O)c1 [4-methylcatechol]
> 15 µM | COc1ccc(-c2coc3cc(O)ccc3c2=O)cc1 [Formonoetin]
> 25 µM | O=c1cc(-c2ccc(O)c(O)c2)oc2c([C@@H]3O[C@H](CO)[C@@H](O)[C@H](O)[C@H]3O)c(O)cc(O)c12 [Orientin]
2 µM | COc1ccc(-c2oc3cc(O)cc(O)c3c(=O)c2O)cc1 [Kaempferide]
> 15 µM | CC(=O)Oc1cc(O)c2c(c1)OC(c1ccc(OC(C)=O)c(OC(C)=O)c1)C(OC(C)=O)C2=O (stereo not drawn) [2-(acetyloxy)-4-[3,7-bis(acetyloxy)-5-hydroxy-4-oxo-3,4-dihydro-2H-chromen-2-yl]phenyl acetate]
> 25 µM | C[C@@H]1O[C@@H](OC[C@H]2O[C@@H](Oc3cc(O)c4c(c3)O[C@H](c3ccc(O)cc3)CC4=O)[C@H](O)[C@@H](O)[C@@H]2O)[C@H](O)[C@H](O)[C@H]1O [Narirutin]
> 25 µM | O=c1cc(-c2ccc(O)c(O)c2)oc2cc(O)c([C@@H]3O[C@H](CO)[C@@H](O)[C@H](O)[C@H]3O)c(O)c12 [Isoorientin]
~15 µM | Oc1cccc(O)c1O [Pyrogallol]

IC50 | Structure (SMILES)
2.5 µM | O=c1c(O)c(-c2ccc(O)c(O)c2)oc2cc(O)cc(O)c12 [Quercetin]
> 15 µM | O=C(O)/C=C/c1ccc(O)c(O)c1 [Caffeic Acid]
> 25 µM | COc1cc(OC)c2c(c1)OC(c1ccc(O)cc1)CC2=O (stereo not drawn) [5,7-dimethoxy-4′hydroxyflavanone]
> 15 µM | Oc1cc(O)c2c(c1)O[C@H](c1ccc(O)c(O)c1)[C@@H](O)C2 [Catechin]
> 15 µM | O=c1c(O)c(-c2ccc(O)cc2O)oc2cc(O)cc(O)c12 [Morin]
> 15 µM | O=c1c(O[C@@H]2O[C@H](CO)[C@@H](O)[C@H](O)[C@H]2O)c(-c2ccc(O)c(O)c2)oc2cc(O)cc(O)c12 [Isoquercetin]
1.1 µM | COc1ccc(-c2cc(=O)c3c(O)cc(O)c(-c4cc(-c5cc(=O)c6c(O)cc(OC)cc6o5)ccc4OC)c3o2)cc1 [Sciadopitysin]
0.99 µM | O=c1c(O)c(-c2cc(O)c(O)c(O)c2)oc2cc(O)cc(O)c12 [Myricetin]
> 15 µM | COc1cc(-c2oc3cc(O)cc(O)c3c(=O)c2O)cc(OC)c1OC [3,5,7-Trihydroxy-3′,4′,5′-Trimethoxyflavone]
3.4 µM | O=c1cc(-c2ccccc2)oc2cc(O)c(O)c(O)c12 [Baicalein]
5.1 µM | Oc1cc(O)c2cc(O)c(-c3cc(O)c(O)c(O)c3)[o+]c2c1 [Delphinidin]
> 25 µM | COc1cc(O)c(C(=O)/C=C/c2ccc(O)cc2)c(OC)c1 [2′,4-dihydroxy-4′,6′-dimethoxychalcone]
0.5 µM and ~0.5 µM | O=c1c(O)c(-c2ccc(O)c(O)c2)oc2cc(O)c(O)c(O)c12 [Quercetagetin]
~25 µM | COc1ccc(-c2cc(=O)c3c(O)cc(O[C@@H]4O[C@H](CO[C@@H]5O[C@@H](C)[C@H](O)[C@@H](O)[C@H]5O)[C@@H](O)[C@H](O)[C@H]4O)cc3o2)cc1O [Diosmin]
> 100 µM | Oc1ccc(/C=C/c2cc(O)cc(O)c2)cc1 [Resveratrol]
~15 µM | COc1ccc(-c2coc3cc(O)cc(O)c3c2=O)cc1 [Biochanin a]

Structure (SMILES) | IC50
CC(C)(O)[C@@H]1[C@H]2OC(=O)[C@@H]1[C@]1(O)C[C@H]3O[C@]34C(=O)O[C@H]2[C@]14C [Picrotin] | > 25 µM
CC(C)NC(=O)N1CC(=O)N(c2cc(Cl)cc(Cl)c2)C1=O [Iprodione] | > 15 µM
Oc1cc(O)c2c(c1)O[C@H](c1ccc(O)c(O)c1)[C@H](O)[C@H]2c1c(O)cc(O)c2c1O[C@H](c1ccc(O)c(O)c1)[C@H](O)C2 [Procyanidin B2] | > 35 µM
O=C(O)c1cc(O)c(O)c(O)c1 [Gallic acid] | > 15 µM
O=c1c(O)c(-c2ccc(O)c(O)c2)oc2c(O)c(O)cc(O)c12 [Gossypetin] | 4.9 µM
Oc1cc(O)c2c(c1)O[C@H](c1ccc(O)c(O)c1)[C@H](O)[C@H]2c1c(O)cc(O)c2c1O[C@H](c1ccc(O)c(O)c1)[C@@H](O)C2 [Procyanidin B1] | > 35 µM
Oc1cc(O)c2c(c1)O[C@H](c1cc(O)c(O)c(O)c1)[C@H](O)C2 [Epigallocatechin] | > 15 µM
CC(C)(C)C(O)(CCc1ccc(Cl)cc1)Cn1cncn1 (stereo not drawn) [Tebuconazole] | > 15 µM
O=c1c(-c2ccc(O)cc2)coc2cc(O[C@@H]3O[C@H](CO)[C@@H](O)[C@H](O)[C@H]3O)ccc12 [Diadzin] | > 15 µM
Oc1cc(O)c2c(c1)O[C@H](c1ccc(O)c(O)c1)[C@@H](O)[C@@H]2c1c(O)cc(O)c2c1O[C@H](c1ccc(O)c(O)c1)[C@@H](O)C2 [Procyanidin B3] | > 35 µM
O=C(O[C@@H]1Cc2c(O)cc(O)cc2O[C@@H]1c1cc(O)c(O)c(O)c1)c1cc(O)c(O)c(O)c1 [Epigallocatechin gallate] | 2.6 µM
C[C@@H]1O[C@@H](O[C@H]2[C@H](Oc3cc(O)c4c(c3)O[C@H](c3ccc(O)cc3)CC4=O)O[C@H](CO)[C@@H](O)[C@@H]2O)[C@H](O)[C@H](O)[C@H]1O [Naringin] | > 25 µM
CCCCC(C#N)(Cn1cncn1)c1ccc(Cl)cc1 (stereo not drawn) [Myclobutanil] | > 15 µM
O=C(O[C@@H]1Cc2c(O)cc(O)cc2O[C@@H]1c1ccc(O)c(O)c1)c1cc(O)c(O)c(O)c1 [Epicatechin gallate] | 1.4 µM
CO/C=C(/C(=O)OC)c1ccccc1Oc1cc(Oc2ccccc2C#N)ncn1 [Azoxystrobin] | > 15 µM
C=CCc1ccc(O)c(OC)c1 [Eugenol] | > 15 µM
O=c1cc(-c2ccc(O)c(O)c2)oc2cc(O[C@@H]3O[C@H](CO)[C@@H](O)[C@H](O)[C@H]3O)cc(O)c12 [Luteolin 7-O-B-glucoside] | > 25 µM
O=C(O)[C@H]1O[C@@H](Oc2cc3oc(-c4ccc(O)cc4)cc(=O)c3c(O)c2O)[C@H](O)[C@@H](O)[C@@H]1O [Scutellarin] | 4.9 µM
COc1cc(-c2oc3cc(O)cc(O)c3c(=O)c2O)ccc1O [3,5,7,4′-Tetrahydroxy-3′-methoxyflavone] | > 15 µM
O=c1c(-c2ccc(O)cc2)coc2cc(O)ccc12 [Diadzein] | > 15 µM
O=c1cc(-c2ccc(O)cc2)oc2cc(O)cc(O)c12 [Apigenin] | > 15 µM
COc1cc(C(=O)O)ccc1O [Vanillic acid] | > 15 µM

Same assay, conditions: IC50, PP2A demethylation activity assay, GSE flavonoids / grape seed components

Structure (SMILES) | IC50 [µM]
COP(=S)(OC)SCN1C(=O)c2ccccc2C1=O [Phosmet] | > 15

Source: PMC8587015, “AGSE: A Novel Grape Seed Extract Enriched for PP2A Activating Flavonoids That Combats Oxidative Stress and Promotes Skin Health” (Molecules, 2021)
